Laboratory results from patent US10899932B2, “Non-amphoteric, quaternisable and water-soluble polymers for modifying the surface charge of solid particles” (priority 2014, dated 2021).

Experiment: Zeta potential measurement of aqueous suspensions of powders (Coulter DELSA 440 SX)
Format: physicochemical
Settings: aqueous suspension, pH 4
Description: The zeta potential can be determined directly from the direction and velocity of migration of the dispersed particles in an electrical field, on the basis of the following relation:
[formula] • ζ=zeta potential (in mV) • ε=dielectric constant of the dispersion medium • v=electrophoretic migration velocity (in cm/s) • η=viscosity of the dispersion medium (poise, 1 poise=0.1 Pa·s) • E=field strength (in […]) • f=numerical factor (friction factor), dependent on the shape of the particles, their conductivity, and the size of the particles in comparison to the thickness of the diffuse double layer
The migration velocity here is measured, depending on the size of the particles under investigation, either by means of observation through a light microscope or, particularly in the case of relatively small particles, by means of laser correlation spectroscopy.
The zeta potential of the aqueous suspensions of boron nitride, silicon carbide, diamond, deltamethrin and azoxystrobin powders, all produced in analogy to the example above, was determined as follows. The measurement took place with a Coulter DELSA 440 SX instrument. […] This reversal of the original surface charge was verified for the inventive particles by the experimental measurements below.

Row | SMILES | Zeta potential [mV]
1 | CC1(C)[C@H](C(=O)O[C@H](C#N)c2cccc(Oc3ccccc3)c2)[C@@H]1C=C(Br)Br [CE7, Deltamethrin] | −32
2 | CO/C=C(/C(=O)OC)c1ccccc1Oc1cc(Oc2ccccc2C#N)ncn1 [CE8, Azoxystrobin] | −36
